Results published in patent US9296749B2, “Crystalline cis-(E)-4-(3-fluorophenyl)-2′,3′,4′,9′-tetrahydro-N,N-dimethyl-2′-(1-oxo-3-phenyl-2-propenyl)-spiro[cyclohexane-1,1′[1H]” (priority 2013, dated 2016).

Experiments:
Type in all cases: physicochemical
[1] = Chemical stability of crystalline forms, open-vial storage (content by HPLC, crystalline form by XRPD)
Experimental: Samples of compound 1 in different crystalline forms were stored in open vials under controlled conditions at different temperatures and rel. humidities for 28 days. Prior to storage and after 14 and 28 days the content of compound (1) in the sample was determined via HPLC and the crystalline form was measured via XRPD.

[2] = Slurry of a single crystalline form in solvent, resulting form by XRPD
Experimental: A quantity of compound (1) is charged into a vial or flask and an amount of solvent is added. The resulting suspension/solution is stirred (e.g. orbital shaker or overhead-stirrer) for a given time at a specific temperature. Subsequently, if the suspension/solution was stirred at an elevated temperature, it is allowed to cool to room temperature or any other predetermined temperature to precipitate or crystallize the product and the solvent is removed by filtration.
The vial was closed and the mixture (a white suspension) was stirred (by means of shaking, 400 rpm, PLS Synthesiser) at room temperature (22±2° C.) for 13 days.
The solid was separated using a suction filter and dried by applying an air flow for additional 5 to 30 minutes (until the solid appeared to be dry).
The vial was closed and the suspension was stirred (by means of shaking, PLS shaker, 400 rpm) at an elevated temperature (40° C.±2) for 20 h.
The mixture was cooled to 20±2° C. The solid was separated using a suction filter (G4) and dried by applying an air flow until the sample appeared to be dry. The white solid was subsequently left for 1 h at ambient conditions.

[3] = Interconversion/slurry experiments of mixed crystalline forms in 2-propanol (XRPD)
Experimental: About 25 mg of a specific crystalline form of compound (1) and 25 mg of the same or another crystalline form of compound (1) were charged into a vial and 1.0 mL of 2-Propanol was added. The vials were closed and the mixtures were stirred (via shaking using an Eppendorf Thermomixer, starting with 750 rpm, increased to 1000 rpm after 1 day) at an elevated temperature (30±2° C.) for 7 days. Subsequently the mixtures were cooled to 20±2° C. and stirred for an additional 2 hours.
The solids were then separated via filtration using a suction filter. To dry the thus obtained solid material an air flow was applied for 2 to 3 hours.
The crystalline form of the obtained materials was determined using XRPD. The experiments are summarized below in table 2 below.
A mixture of two different crystalline forms of compound (1) was charged into a vial and 1.0 mL of 2-Propanol was added (details see table).
The vials were closed and the mixtures were stirred (by means of shaking, Eppendorf Thermomixer, 750 rpm at first, increased to 1000 rpm after 1 d) at elevated temperature (30±2° C.) for 7 days.
Subsequently, the mixtures were cooled to 20±2° C. and stirred for additional 2 hours.
The solids were then isolated via filtration using a suction filter. The air flow from the suction pump was applied for 2 to 3 hours to dry the isolated solid.

[4] = Dynamic vapor sorption (DVS), hygroscopicity
Experimental: Crystalline forms were characterized by dynamic vapor sorption (DVS) using a Porotec DVS 1000 or a SMS DVS Intrinsic water vapor sorption analyzer. For the DVS analysis, a step width of 10% r.h. was applied allowing the samples to equilibrate and reach weight constancy (±0.002%) for at least 10 min on each step. All measurements were performed according to the following program: 50% r.h.→90% r.h., 90→0% r.h., 0%→90% r.h., 90%→50% r.h. A cycle with increasing humidity is also known as a sorption cycle, a cycle with decreasing humidity is also known as a desorption cycle. The details of the respective DVS measurements are shown below in table 51 and discussed further below.
The hygroscopicity of the respective crystalline forms determined via the DVS measurements was classified according to the ranges for mass increase defined in the European Pharmacopoeia: very hygroscopic (vh): increase of the mass ≧15%; hygroscopic (h): increase of the mass is less than 15% and equal or greater than 2%; slightly hygroscopic (sh): increase of the mass is less than 2% and equal or greater than 0.2%; not hygroscopic (nh): increase of the mass is less than 0.2%; deliquescent (d): sufficient water is absorbed to form a liquid.

[5] = Chemical stability in pharmaceutical compositions (excipient mixtures with 10% compound (1)); settings: listed as A
Experimental: To test the chemical stability, i.e. compatibility of different crystalline forms of compound (1), solid multi component mixtures were prepared comprising well established excipients used for solid oral dosage form and having different functions therein. The single components of each mixture were exactly weighed and intensively triturated using a mortar and a pestle.
10 g of the final mixtures were separately filled into glass vials (open or closed) and stored under the conditions outlined below in table 13. Samples were taken and analyzed initially and after 1, 2 and 3 months with respect to the content of compound (1) within the mixtures.

**Q.** What does the source list for `CN(C)[C@]1(c2cccc(F)c2)CC[C@]2(CC1)c1[nH]c3ccccc3c1CCN2C(=O)/C=C/c1ccccc1` [crystalline form A, cis-(E)-4-(3-Fluorophenyl)-2′,3′,4′,9′-tetrahydro-N,N-dimethyl-2′-(1-oxo-3-phenyl-2-propenyl)-spiro[cyclohexane-1,1′[1H]-pyrido[3,4-b]indol]-4-amine]?
**A.** Content cmpd (1) ([1]; 40° C., 75% r.H., storage 0 d, listed as A): 99.58%; Content cmpd (1) ([1]; 40° C., 75% r.H., storage 14 d, listed as A): 99.63%; Content cmpd (1) ([1]; 40° C., 75% r.H., storage 28 d, listed as A): 99.39%; Content cmpd (1) ([1]; 50° C., storage 0 d, listed as A): 99.58%; Content cmpd (1) ([1]; 50° C., storage 14 d, listed as A): 99.49%; Content cmpd (1) ([1]; 50° C., storage 28 d, listed as A): 99.37%; resulting crystalline form ([2]; suspension in ethanol, 40° C.±2, 20 h): crystalline form A; resulting crystalline form ([2]; suspension in ethylacetate/water 70:30, room temperature (22±2° C.), 13 days): crystalline form A; thermodynamic stability relative to the other crystalline forms ([3]; conclusion from the interconversion experiments in 2-Propanol): thermodynamically more stable than the other crystalline forms; change in mass with increasing/decreasing relative humidity [4]: −0.2 to 0.1%; hysteresis [4]: ≤ 0.5%; hygroscopicity ([4]; classes of European Pharmacopoeia): not hygroscopic or just slightly hygroscopic; content of compound (1) within the mixture ([5]; Lactose monohydrate, PVP25, Crospovidone, Talcum, 40° C., 75% rel. hum., 0 month): 99.66; content of compound (1) within the mixture ([5]; Lactose monohydrate, PVP25, Crospovidone, Talcum, 40° C., 75% rel. hum., 1 month): 99.93; content of compound (1) within the mixture ([5]; Lactose monohydrate, PVP25, Crospovidone, Talcum, 40° C., 75% rel. hum., 2 months): 99.72; content of compound (1) within the mixture ([5]; Lactose monohydrate, PVP25, Crospovidone, Talcum, 40° C., 75% rel. hum., 3 months): 99.86; content of compound (1) within the mixture ([5]; Lactose monohydrate, PVP25, Crospovidone, Talcum, 50° C. dry, 0 month): 99.66; content of compound (1) within the mixture ([5]; Lactose monohydrate, PVP25, Crospovidone, Talcum, 50° C. dry, 1 month): 99.58; content of compound (1) within the mixture ([5]; Lactose monohydrate, PVP25, Crospovidone, Talcum, 50° C. dry, 2 months): 99.54; content of compound (1) within the mixture ([5]; Lactose monohydrate, PVP25, Crospovidone, Talcum, 50° C. dry, 3 months): 99.56; content of compound (1) within the mixture ([5]; Microcrystalline cellulose, HPMC 6 mPas, L-HPC LH21, magnesium stearate, 40° C., 75% rel. hum., 0 month): 90.64; content of compound (1) within the mixture ([5]; Microcrystalline cellulose, HPMC 6 mPas, L-HPC LH21, magnesium stearate, 40° C., 75% rel. hum., 1 month): 99.61; content of compound (1) within the mixture ([5]; Microcrystalline cellulose, HPMC 6 mPas, L-HPC LH21, magnesium stearate, 40° C., 75% rel. hum., 2 months): 99.60; content of compound (1) within the mixture ([5]; Microcrystalline cellulose, HPMC 6 mPas, L-HPC LH21, magnesium stearate, 40° C., 75% rel. hum., 3 months): 99.66; content of compound (1) within the mixture ([5]; Microcrystalline cellulose, HPMC 6 mPas, L-HPC LH21, magnesium stearate, 50° C. dry, 0 month): 99.64; content of compound (1) within the mixture ([5]; Microcrystalline cellulose, HPMC 6 mPas, L-HPC LH21, magnesium stearate, 50° C. dry, 1 month): 99.59; content of compound (1) within the mixture ([5]; Microcrystalline cellulose, HPMC 6 mPas, L-HPC LH21, magnesium stearate, 50° C. dry, 2 months): 99.59; content of compound (1) within the mixture ([5]; Microcrystalline cellulose, HPMC 6 mPas, L-HPC LH21, magnesium stearate, 50° C. dry, 3 months): 99.62

**Q.** With `CN(C)[C@]1(c2cccc(F)c2)CC[C@]2(CC1)c1[nH]c3ccccc3c1CCN2C(=O)/C=C/c1ccccc1` [crystalline form D, cis-(E)-4-(3-Fluorophenyl)-2′,3′,4′,9′-tetrahydro-N,N-dimethyl-2′-(1-oxo-3-phenyl-2-propenyl)-spiro[cyclohexane-1,1′[1H]-pyrido[3,4-b]indol]-4-amine] as the compound, how does the “Content cmpd (1)” value ([1]; 40° C., 75% r.H., storage 0 d, listed as D) read?
**A.** The value was 84.61%.

**Q.** And the “Content cmpd (1)” value ([1]; 40° C., 75% r.H., storage 14 d, listed as D)?
**A.** The value was 84.27%.

**Q.** And the “Content cmpd (1)” value ([1]; 40° C., 75% r.H., storage 28 d, listed as D)?
**A.** The value was 83.92%.

**Q.** And the “Content cmpd (1)” value ([1]; 50° C., storage 0 d, listed as D)?
**A.** Its value is 84.61%.

**Q.** And the “Content cmpd (1)” value ([1]; 50° C., storage 14 d, listed as D)?
**A.** Its value is 84.65%.

**Q.** What about the “Content cmpd (1)” value ([1]; 50° C., storage 28 d, listed as D) of the same compound?
**A.** Its value is 83.54%.

**Q.** What about the “transformation into another polymorphic form” value ([2]; suspensions of Table 6: acetonitrile, acetone/water or water, RT or 50° C., 3 to 5 d) of the same compound?
**A.** Its value is “did not transform into another polymorphic form”.

**Q.** What about the “hysteresis (in words)” value ([4]; sorption and desorption behavior) of the same compound?
**A.** The value was “no significant hysteresis”.

**Q.** What does the source list for `CN(C)[C@]1(c2cccc(F)c2)CC[C@]2(CC1)c1[nH]c3ccccc3c1CCN2C(=O)/C=C/c1ccccc1` [crystalline form E, cis-(E)-4-(3-Fluorophenyl)-2′,3′,4′,9′-tetrahydro-N,N-dimethyl-2′-(1-oxo-3-phenyl-2-propenyl)-spiro[cyclohexane-1,1′[1H]-pyrido[3,4-b]indol]-4-amine]?
**A.** Content cmpd (1) ([1]; 40° C., 75% r.H., storage 0 d, listed as E): 99.76%; Content cmpd (1) ([1]; 40° C., 75% r.H., storage 14 d, listed as E): 99.80%; Content cmpd (1) ([1]; 40° C., 75% r.H., storage 28 d, listed as E): 99.50%; Content cmpd (1) ([1]; 50° C., storage 0 d, listed as E): 99.76%; Content cmpd (1) ([1]; 50° C., storage 14 d, listed as E): 97.25%; Content cmpd (1) ([1]; 50° C., storage 28 d, listed as E): 95.53%; hysteresis (in words) ([4]; between 10% and 40% relative humidity): significant hysteresis

**Q.** Which resulting crystalline form ([3]; 1.0 mL 2-Propanol, 30±2° C. 7 days, then 20±2° C. 2 hours, XRPD) does the source give for `CN(C)[C@]1(c2cccc(F)c2)CC[C@]2(CC1)c1[nH]c3ccccc3c1CCN2C(=O)/C=C/c1ccccc1` [A17.9] here?
**A.** The resulting crystalline form was “A + H”.
